In US9849151B2, “Salacia compositions, methods of treatment by their administration, and methods of their preparation” (priority 2013, dated 2017):

Columns and labels:
3T3L1 cells = experiment: Lipolysis assay, glycerol release in 3T3L1 adipocytes; type: cell-based; settings: 24 h, Salacia composition 100 ug/ml, isoproterenol 10 uM, ratio higher than 1.40 = enhances lipolysis
Protocol: The assay is carried out to assess the ability of the extracts to breakdown triglycerides to glycerol and free fatty acids. The Salacia composition, such as that of Example 1 was screened for lipolysis in 3T3L1 cell model. 3T3L1 preadipocytes were cultured for a week in Dulbecco modified Eagle's medium (DMEM) supplemented with 10% new calf serum, 25 mM glucose, 2 mM glutamine, 100 U/ml penicillin, 100 ug/ml streptomycin at 37° C. in 5% CO2 atmosphere until 100% confluence. Two days after confluence, the differentiation of 3T3L1 into adipocytes was initiated using (DMEM) supplemented with 10% fetal bovine serum (FBS), 25 mM glucose, 2 mM glutamine, 100 U/ml penicillin, 100 ug/ml streptomycin and differentiation inducers (0.5 mM isobutyl-methylxanthine (IBMX), 10 μg/ml insulin and 1 μM dexamethasone) for 48 h (day 0-day 2). The cells were then cultured for another 48 h with the same medium containing only 10 μg/ml insulin (day 2 to day 4), then with only the medium (day 4 to day 6). The Salacia composition, such as that of Example 1 was added to the medium at the concentration 100 ug/ml for 24 h and assessed for lipolysis. […] The glycerol released after 24 h in the cell media was assessed using glycerol reagent (sigma) and expressed relative to the cellular protein content. The protein content was assessed using bicinchoninic acid (BCA) PierceTM kit. […]

[1] = test system: Hormone Sensitive lipase (HSL); experiment: Hormone Sensitive Lipase assay, Western blot densitometry of adipocyte lysates; type: cell-based; settings: 3T3L1 adipocytes treated 24 h, non-treated = 1.00
Protocol: The glycerol released after 24 h in the cell media was assessed using glycerol reagent (sigma) and expressed relative to the cellular protein content. The protein content was assessed using bicinchoninic acid (BCA) PierceTM kit. […] Proteins were collected from cell lysates of 3T3L1 adipocytes treated for 24 h with the Salacia composition or isoproterenol. Protein samples were blotted and probed for total hormone sensitive lipase (HSL), and phosphorylated hormone sensitive lipase at […]. Then, the ratio of phosphorylated-HSL to total HSL was compared between treated and non-treated samples.

[2] = Antioxidant activity by DPPH assay; settings: at 20 μM
Protocol: The capacity of plant extracts or fractions to directly react with and quench free radicals was evaluated as described earlier (Cheng et al 2006). A stock solution of DPPH (200 μM) was prepared in ethanol. The assay was performed in 96-well plates. The reaction mixture, containing 100 μL of DPPH and 100 μL of test sample, was incubated at 37° C. for 30 min. The absorbance was measured at 515 nm. Gallic acid was used as a positive control. Percent DPPH radical scavenging activity was calculated as follows. [Reference: Cheng Z, Morre J, Yub L (2006) J Agric Food Chem, 54: 7429-7436] % radical scavenging activity=[1−(sample-blank)/(control-blank)]×100

Compound | Glycerol/protein ratio (3T3L1 cells) | Phospho-HSL (densitometry) ([1]; Serine 563) | Ratio phosphorylated-HSL/Total HSL [1] | Total HSL (densitometry) [1] | % radical scavenging activity (DPPH) [2] [%]
CC(C)NCC(O)c1ccc(O)c(O)c1 (centres unmarked) [Isoproterenol] | 1.50 | 2.63 | 1.01 | 2.60 | 
O=C(O)c1cc(O)c(O)c(O)c1 [Gallic acid] |  |  |  |  | 86
